In PMC8752738, “A propolis-derived small molecule ameliorates metabolic syndrome in obese mice by targeting the CREB/CRTC2 transcriptional complex” (Nature Communications, 2022):
Values joined by “and” are separate entries in the source; they are usually repeats but may differ in a detail not shown here. Equal values may be shown once.

Test system: tissue mRNA levels
Test: Quantitative PCR of tissue gene expression in treated mice;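 as to mRNA levels Retn: daily intraperitoneal dosing for 5 weeks versus vehicle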;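 as to mRNA levels Srebf-1c: daily intraperitoneal dosing for 5 weeks versus vehicle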;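 as to mRNA levels Srebf-2: daily intraperitoneal dosing for 5 weeks versus vehicle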;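 as to mRNA levels Tnfaip2: daily intraperitoneal dosing for 5 weeks versus vehicle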
Assay type: in vivo, mouse
Set-up: key to mRNA levels Scap / mRNA levels Insig1 / mRNA levels Ldlr / mRNA levels Mttp / mRNA levels Atgl / mRNA levels Tnfaip2 / mRNA levels Rxra / mRNA levels Srebf1 / mRNA levels Ucp2: mRNA level normalized to ribosomal L32 mRNA (internal control)
Protocol: Total RNA from cells and tissues was extracted by Trizol (Invitrogen) and reverse-transcribed into cDNA using the prime script RT reagent kit with gDNA eraser (Takara). The mRNA levels were determined using the SYBR-green PCR kit (Takara) with ABIPRISM 7900HT Sequence detector (ABI) according to the manufacturer’s protocol. The quantitative qPCR primers used in this work are listed in Supplementary Table 1. Ribosomal L32 mRNA levels were used as an internal control.

[1] = Figure 6d, white fat (WF) tissue of DIO mice, individual animals
[2] = db/db mice, liver, individual mouse, relative to VEH
[3] = liver of DIO mice, individual animals, n=5, relative to VEH

## CC(C)=CCc1cc(C=CC(=O)O)cc(CC=C(C)C)c1O [APC, 3,5-diprenyl-4-hydroxycinnamic acid]
[1]
  mRNA levels Retn: 0.123 and 0.143 and 0.2381 and 0.235 and 0.5597 and 0.5846
  mRNA levels Scd1: 0.2084 and 0.3568 and 0.6736 and 0.7934 and 0.506 and 0.7156
  mRNA levels Srebf-1c: 0.5354 and 0.1144 and 0.4679 and 0.2361 and 0.4842 and 0.3947
  mRNA levels Srebf-2: 0.5798 and 0.5629 and 0.8096 and 0.529 and 0.7852 and 0.6266
  mRNA levels Tnfaip2: 1.35 and 1.386 and 0.7621 and 0.8823 and 0.8616 and 0.7122
WT mice, Met 200mg/kg or APC-20
  Mean Diff. (Veh. vs. treated; head of the quantity not shown, section just before Figure 7h): 0.5814
brain, Creb mRNA, group mean
  CREB targets in tissues: Brain-Creb, Mean of APC: 1.036
brain, Creb mRNA, individual animals
  CREB targets in tissues: Brain-Creb: 1.197 and 1.012 and 0.7996 and 1.136
brain, Nr4a1 mRNA, group mean
  CREB targets in tissues: Brain-Nr4a1, Mean of APC: 1.211
brain, Nr4a1 mRNA, individual animals
  CREB targets in tissues: Brain-Nr4a1: 1.274 and 1.137 and 0.9545 and 1.476
db/db mice, liver, group mean
  G6pc mRNA levels in the liver of db/db, Mean of APC: 0.7471
  Pck1 mRNA levels in the liver of db/db, Mean of APC: 0.6226
  Pgc1a mRNA levels in the liver of db/db, Mean of APC: 0.7977
  Pgc1beta mRNA levels in the liver of db/db, Mean of APC: 0.5441
[2]
  G6pc mRNA levels in the liver of db/db: 0.8066 and 0.775 and 0.6553 and 0.7287 and 0.77
  Pck1 mRNA levels in the liver of db/db: 0.6945 and 0.6263 and 0.76 and 0.3641 and 0.668
  Pgc1a mRNA levels in the liver of db/db: 0.6615 and 0.9739 and 0.731 and 0.852 and 0.77
  Pgc1beta mRNA levels in the liver of db/db: 0.4871 and 0.4573 and 0.6546 and 0.4823 and 0.6391
intestine, Creb mRNA, group mean
  CREB targets in tissues: Intestine-Creb, Mean of APC: 0.8467
intestine, Creb mRNA, individual animals
  CREB targets in tissues: Intestine-Creb: 1.179 and 0.6319 and 0.7341 and 0.8415
intestine, Gcg mRNA, group mean
  CREB targets in tissues: Intestine-Gcg, Mean of APC: 1.011
intestine, Gcg mRNA, individual animals
  CREB targets in tissues: Intestine-Gcg: 1.309 and 1.259 and 0.7551 and 0.7184
intestine, Nr4a1 mRNA, group mean
  CREB targets in tissues: Intestine-Nr4a1, Mean of APC: 0.8751
intestine, Nr4a1 mRNA, individual animals
  CREB targets in tissues: Intestine-Nr4a1: 0.8692 and 0.9136 and 0.8672 and 0.8504
kidney, Creb mRNA, group mean
  CREB targets in tissues: Kidney-Creb, Mean of APC: 1.013
kidney, Creb mRNA, individual animals
  CREB targets in tissues: Kidney-Creb: 1.268 and 1.031 and 0.912 and 0.8402
kidney, Nr4a1 mRNA, group mean
  CREB targets in tissues: Kidney-Nr4a1, Mean of APC: 1.291
kidney, Nr4a1 mRNA, individual animals
  CREB targets in tissues: Kidney-Nr4a1: 1.347 and 1.276 and 1.454 and 1.087
[3]
  mRNA levels of nuclear receptor in the liver of DIO mice: Lxrα: 0.586 and 0.8678 and 0.6768 and 0.6509 and 0.6469
  mRNA levels of nuclear receptor in the liver of DIO mice: Pparα: 0.9724 and 0.9732 and 1.109 and 1.163 and 1.051
  mRNA levels of nuclear receptor in the liver of DIO mice: Pparγ: 1.158 and 1.005 and 1.0158 and 1.1983 and 1.083
  mRNA levels of nuclear receptor in the liver of DIO mice: Rxrα: 0.9006 and 1.063 and 0.8578 and 0.9925 and 1.111
Liver of DIO mice, mean of N=5
  mRNA levels of nuclear receptor in the liver of DIO mice: Lxrα, group mean (Mean 1): 0.6857
  mRNA levels of nuclear receptor in the liver of DIO mice: Pparα, group mean (Mean 1): 1.054
  mRNA levels of nuclear receptor in the liver of DIO mice: Pparγ, group mean (Mean 1): 1.092
  mRNA levels of nuclear receptor in the liver of DIO mice: Rxrα, group mean (Mean 1): 0.9849
muscle, Creb mRNA, group mean
  CREB targets in tissues: Mus-Creb, Mean of APC: 1.048
muscle, Creb mRNA, individual animals
  CREB targets in tissues: Mus-Creb: 1.0591 (2×) and 0.9897 and 1.082
muscle, Nr4a1 mRNA, group mean
  CREB targets in tissues: Mus-Nr4a1, Mean of APC: 1.244
muscle, Nr4a1 mRNA, individual animals
  CREB targets in tissues: Mus-Nr4a1: 1.457 (2×) and 0.6913 and 1.369
muscle, Pdk1 mRNA, group mean
  CREB targets in tissues: Mus-Pdk1, Mean of APC: 0.9489
muscle, Pdk1 mRNA, individual animals
  CREB targets in tissues: Mus-Pdk1: 0.9576 (2×) and 0.8606 and 1.02
Oral 20 mg/kg daily, 3 weeks
  liver mRNA levels of Srebp-1c and 2 in CRTC2 knockout mice: did not further decrease
pancreas, C2cd4a mRNA, group mean
  CREB targets in tissues: Pancreac-C2cd4a, Mean of APC: 0.9353
pancreas, C2cd4a mRNA, individual animals
  CREB targets in tissues: Pancreac-C2cd4a: 1.193 and 0.8753 and 0.8055 and 0.8678
pancreas, Creb mRNA, group mean
  CREB targets in tissues: Pancreac-Creb, Mean of APC: 1.238
pancreas, Creb mRNA, individual animals
  CREB targets in tissues: Pancreac-Creb: 1.233 and 1.182 and 1.267 and 1.269
pancreas, Nr4a1 mRNA, group mean
  CREB targets in tissues: Pancreac-Nr4a1, Mean of APC: 1.238
pancreas, Nr4a1 mRNA, individual animals
  CREB targets in tissues: Pancreac-Nr4a1: 0.9381 and 1.521 and 1.263 and 1.23
spleen, Creb mRNA, group mean
  CREB targets in tissues: Spleen-Creb, Mean of APC: 1.07
spleen, Creb mRNA, individual animals
  CREB targets in tissues: Spleen-Creb: 1.294 and 1.069 and 0.8334 and 1.085
spleen, Nr4a1 mRNA, group mean
  CREB targets in tissues: Spleen-Nr4a1, Mean of APC: 1.115
spleen, Nr4a1 mRNA, individual animals
  CREB targets in tissues: Spleen-Nr4a1: 1.516 and 1.042 and 0.6673 and 1.233
